Paper PMC6251916, “CKD-506, a novel HDAC6-selective inhibitor, improves renal outcomes and survival in a mouse model of systemic lupus erythematosus” (Scientific Reports, 2018)

How the values were obtained:
HDAC6 and HDAC1 = tested on: HDAC6 and HDAC1; design: method as in PMID 22262760; settings: cited from earlier work
[1] = design: method as in PMID 27646843; settings: cited from earlier work
NZB/W F1 female mice [2] = experiment: Murine SLE model: survival, severe proteinuria, UP/C; format: in vivo, mouse; settings: methylprednisolone 5 mg/kg/day i.p.
Method: (§1) Survival had been monitored until 42 weeks of age.
During the experiments, urine protein levels had been measured every 2 weeks. Fresh urine was collected by performing abdominal massages. Urine protein was measured with the Coomassie Brilliant Blue method as described in our previous study. Urine creatinine was measured using a DRI-CHEM 3000 Colorimetric analyzer (Fujifilm, Tokyo, Japan) with the urine diluted in deionized water (1:100 dilution).

NZB/W F1 female mice [3] = experiment: Murine SLE model: serum chemistry and necropsy; settings: group P: methylprednisolone 5 mg/kg/day; serum at autopsy; mean ± SD
Method: Control mice received 150 μL of vehicle (Ethanol: Kolliphor® EL: saline = 1:1:8) and were subjected to the same schedule. Survival rate and incidence of severe proteinuria (percent individual mice with urine protein ≥300 mg/dL) were calculated. Survival had been monitored until 42 weeks of age.

NZB/W F1 female mice [4] = experiment: Murine SLE model: cytokine levels in kidney extracts; format: in vivo, mouse; settings: group P: methylprednisolone 5 mg/kg/day; at autopsy; mean ± SD; n = 13
Method: The kidneys were weighed and then transferred into dPBS (Welgene) supplemented with anti-protease Complete TM cocktail (Boehringer) using 12.5 μl of dPBS per milligram of wet weight tissue. Samples were homogenized twice using an Automill TK-AM5 freeze-crushing cell homogenizer (W 280 mm × D 390 mm × H 290 mm, Tokken Inc., Chiba, Japan) at 1,400 rpm for 90 seconds and then centrifuged at 16,000 × g for 15 min at 4 °C. The supernatants were collected and total protein concentrations were determined in the kidney extracts using a bicinchoninic acid (BCA) protein assay kit™ (Pierce). Total protein concentrations of the kidney extracts were adjusted to 2 mg/dl and used for the analysis of IFN-γ, IL-10, IL-15, IL-17, IL-1β, IL-4, IL-6, IP-10, MCP-1, CCL4, RANTES, TNF-α and sCD40L with Milliplex® MAP Kits (Millipore).

NZB/W F1 female mice [5] = experiment: Murine SLE model: flow cytometry of splenocytes; format: in vivo, mouse; settings: methylprednisolone 5 mg/kg/day
Text: Single cell suspensions were obtained from the spleens of NZB/W F1 mice at autopsy (at 43–44 weeks of age). The splenocytes were stained with PerCP-Cy5.5-conjugated anti-mouse CD3e (PerCP-cy5.5-CD3e, eBioscience, San Diego, CA, USA), fluorescein isothiocyanate (FITC)-conjugated anti-mouse CD4 (FITC-CD4, BD Biosciences, San Jose, CA, USA), PE-cyanine7-conjugated anti-mouse CD8a (eBioscience), allo-phycocyanin (APC)-conjugated anti-mouse CD25 (BD Biosciences) and PE-conjugated anti-mouse CD138 (BD Biosciences).
T cell profile was analyzed as described previously; briefly, we examined proportions of Th1 cells (CD4^+CD25^+T-bet^+), Th2 cells (CD4^+CD25^+GATA-3^+), Th17 cells (CD4^+CD25^+ROR-γt^+), and Treg cells (CD4^+CD25^+Foxp3^+). To analyze T helper subsets, the splenocytes were stained with antibodies to CD4 and CD25 (FITC-conjugated anti-mouse CD4 and APC-conjugated anti-mouse CD25, BD Biosciences). Cells were fixed and permeabilized prior to staining with T-bet, GATA-3, ROR-γt and Foxp3 antibodies (PE-, BD Biosciences).

NZB/W F1 female mice [6] = experiment: Murine SLE model: serum cytokine levels (Milliplex); format: in vivo, mouse
Method: Serum samples were assayed using Milliplex® MAP Kits (Millipore) for granulocyte macrophage-colony stimulating factor (GM-CSF), interferon-γ (IFN-γ), interleukin-1α (IL-1α), IL-1β, IL-10, IL-12(p70), IL-15, IL-17a, IL-2, IL-4, IL-6, tumor necrosis factor α (TNF-α), transforming growth factor beta 1 (TGF-β1), IL-22, IL-23, IFN-inducible protein 10 (IP-10 (CXCL10)) and chemokine (C-C motif) ligand 2 (CCL2 (MCP-1)).

NZB/W F1 female mice [7] = experiment: Murine SLE model: BUN and anti-dsDNA antibody levels; format: in vivo, mouse; settings: methylprednisolone 5 mg/kg/day
Method: as §1
Blood samples had been collected from mice under isoflurane anesthesia every 4 weeks (at 24, 28, 32, 36, 40 weeks of age and autopsy), and the obtained serum samples had been kept at −70 °C until the analysis.

NZB/W F1 female mice [8] = experiment: Murine SLE model: kidney histopathology (H&E, PAS, Masson trichrome); format: in vivo, mouse; settings: methylprednisolone 5 mg/kg/day
Text: as §1
Kidneys were harvested from mice at the end of the study (at 43–44 weeks of age). For light microscopy, the tissues were fixed in 10% neutral buffered formalin, embedded in paraffin wax, sectioned at a thickness of 5 μm and stained with H&E (BBC Biochemical, Mount Vernon, WA, USA). Periodic acid/Schiff (PAS stain kit, BBC Biochemical) staining and Masson trichrome (BBC Biochemical) staining were used for the detection of […] and fibrosis, respectively. Inflammatory cell infiltration and mesangial proliferation were scored on a 4-point scale as 0 (none), 1+ (mild), 2+ (moderate), 3+ (moderate to severe) and 4+ (severe).

[9] = group P: methylprednisolone 5 mg/kg/day, at autopsy, mean ± SD, n = 13

In the case of `O=C(CCCCCCNC(=O)c1cnc(N(c2ccccc2)c2ccccc2)nc1)NO` [ACY-1215], the “selectivity for HDAC6 and HDAC1 at IC50” value (HDAC6 and HDAC1) is given as 11 fold and the “significant adverse effects reported in clinical trials” value [1] is given as “grade 3 anemia and neutropenia”.

For `C[C@H]1C[C@@H]2[C@H]([C@@H](O)C[C@@]3(C)[C@H]2CC[C@]3(O)C(=O)CO)[C@@]2(C)C=CC(=O)C=C12` [methylprednisolone, reference compound], the “Survival rate at the end of the study” value (NZB/W F1 female mice [2]; 42-weeks of age) was 93.3%, the “incidence of severe proteinuria (urine protein >300 mg/dl)” value (NZB/W F1 female mice [2]; 42 weeks of age) was 20% and the Ca (NZB/W F1 female mice [3]) was 9.35 ± 0.53 mg/dL. For the same compound, the “Kidney extract CCL2” value (NZB/W F1 female mice [4]) was 19.91 ± 11.71 pg/mL, the “Kidney extract CCL4” value (NZB/W F1 female mice [4]) was 0.60 ± 1.84 pg/mL and the “Kidney extract IFN-γ” value (NZB/W F1 female mice [4]) was 16.91 ± 5.10 pg/mL. For the same compound, the “Kidney extract IL-1β” value (NZB/W F1 female mice [4]) was 4.80 ± 2.85 pg/mL, the “Kidney extract IL-4” value (NZB/W F1 female mice [4]) was 0.06 ± 0.08 pg/mL and the “Kidney extract IL-6” value (NZB/W F1 female mice [4]) was 2.95 ± 0.59 pg/mL. The “Kidney extract IL-10” value (NZB/W F1 female mice [4]) was 12.14 ± 2.02 pg/mL, the “Kidney extract IL-15” value (NZB/W F1 female mice [4]) was 40.90 ± 9.01 pg/mL and the “Kidney extract IP-10” value (NZB/W F1 female mice [4]) was 50.64 ± 15.63 pg/mL. For the same compound, the “Kidney extract RANTES” value (NZB/W F1 female mice [4]) was 9.77 ± 15.22 pg/mL, the “Kidney extract TNF-α” value (NZB/W F1 female mice [4]) was 0.07 ± 0.24 pg/mL and the “ratio of CD4+CD8−/CD4−CD8+ T cells in spleen vs vehicle” value (NZB/W F1 female mice [5]) was “significantly lower”. For the same compound, the “fewer CD4−CD8− cells compared with group vehicle” value (NZB/W F1 female mice [5]; spleen) was 4.3%, the “fewer CD138+ cells compared with group vehicle” value (NZB/W F1 female mice [5]; spleen) was 16.3% and the “Serum IFN-γ” value (NZB/W F1 female mice [6]; [9]) was 0.07 ± 0.24 pg/mL. For the same compound, the “Serum IL-1α” value (NZB/W F1 female mice [6]; [9]) was 666.21 ± 527.20 pg/mL, the “Serum IL-1β” value (NZB/W F1 female mice [6]; [9]) was 0.65 ± 2.34 pg/mL and the “Serum IL-2” value (NZB/W F1 female mice [6]; [9]) was 0.09 ± 0.34 pg/mL. The “Serum IL-4” value (NZB/W F1 female mice [6]; [9]) was 1.49 ± 0.20 pg/mL, the “Serum IL-6” value (NZB/W F1 female mice [6]; [9]) was 3.36 ± 3.30 pg/mL and the “Serum IL-10” value (NZB/W F1 female mice [6]; [9]) was 18.41 ± 12.97 pg/mL. For the same compound, the “Serum IL-12(70)” value (NZB/W F1 female mice [6]; [9]) was 1.04 ± 3.76 pg/mL, the “Serum IL-15” value (NZB/W F1 female mice [6]; [9]) was 45.25 ± 14.91 pg/mL and the “Serum IL-17” value (NZB/W F1 female mice [6]; [9]) was 3.59 ± 1.73 pg/mL. For the same compound, the “Serum IL-22” value (NZB/W F1 female mice [6]; [9]) was 17.68 ± 16.19 pg/mL, the “Serum IL-23” value (NZB/W F1 female mice [6]; [9]) was 22.31 ± 61.77 pg/mL and the “Serum TGF-β1” value (NZB/W F1 female mice [6]; [9]) was 66067.78 ± 18777.09 pg/mL. For the same compound, the “Serum TNF-α” value (NZB/W F1 female mice [6]; [9]) was 1.57 ± 2.07 pg/mL, the “Mean serum levels of CCL2 vs vehicle” value (NZB/W F1 female mice [6]; methylprednisolone 5 mg/kg/day, 36 weeks of age, difference not statistically significant) was “lower” and the “Levels of BUN vs vehicle” value (NZB/W F1 female mice [7]; 36 weeks of age) was “significantly lower”. For the same compound, the “Levels of BUN vs vehicle” value (NZB/W F1 female mice [7]; at autopsy) was “significantly lower” and the “Degree of inflammatory cell infiltration in kidneys vs vehicle” value (NZB/W F1 female mice [8]) was “significantly lower”.
